According to the NIST ThermoML archive (doi:10.1021/je049943s):
Numbers after ± are expanded uncertainties.

What was measured:
[1] = 101.33 kPa, Liquid
[2] = excess molar enthalpy (molar enthalpy of mixing); xn = mol fraction of the nth substance listed; conditions: 308.15 K, 101.33 kPa, Liquid

**Q.** With `OCCc1ccccc1` [2-phenylethanol] as the compound, how does the mass density ([1]; 308.15 K) read?
**A.** 1008.68 ± 0.51 kg/m3

**Q.** With `OCCOCCO` [diethylene glycol] as the compound, how does the mass density ([1]; 298.15 K) read?
**A.** 1112.38 ± 0.58 kg/m3

**Q.** What about the mass density ([1]; 308.15 K) of the same compound?
**A.** 1105.88 ± 0.58 kg/m3

**Q.** Which excess molar enthalpy ([2]; x2 = 0.0281) does the source give for `OCCc1ccccc1` [2-phenylethanol] + OCCOCCOCCOCCO here?
**A.** -0.0289 ± 0.000813 kcal/mol

**Q.** What about the excess molar enthalpy ([2]; x2 = 0.0546) of the same compound?
**A.** -0.0488 ± 0.00115 kcal/mol

**Q.** What about the excess molar enthalpy ([2]; x2 = 0.0797) of the same compound?
**A.** -0.0614 ± 0.00136 kcal/mol

**Q.** What about the excess molar enthalpy ([2]; x2 = 0.1036) of the same compound?
**A.** -0.0687 ± 0.00148 kcal/mol

**Q.** And the excess molar enthalpy ([2]; x2 = 0.1478)?
**A.** -0.0782 ± 0.00165 kcal/mol

**Q.** What about the excess molar enthalpy ([2]; x2 = 0.1878) of the same compound?
**A.** -0.0817 ± 0.0017 kcal/mol

**Q.** What about the excess molar enthalpy ([2]; x2 = 0.2575) of the same compound?
**A.** -0.0832 ± 0.00172 kcal/mol

**Q.** And the excess molar enthalpy ([2]; x2 = 0.3161)?
**A.** -0.0835 ± 0.00174 kcal/mol

**Q.** What about the excess molar enthalpy ([2]; x2 = 0.4095) of the same compound?
**A.** -0.0859 ± 0.00177 kcal/mol

**Q.** What about the excess molar enthalpy ([2]; x2 = 0.5099) of the same compound?
**A.** -0.0878 ± 0.00182 kcal/mol

**Q.** What about the excess molar enthalpy ([2]; x2 = 0.5811) of the same compound?
**A.** -0.0845 ± 0.00174 kcal/mol

**Q.** And the excess molar enthalpy ([2]; x2 = 0.6754)?
**A.** -0.08 ± 0.00167 kcal/mol

**Q.** What about the excess molar enthalpy ([2]; x2 = 0.7351) of the same compound?
**A.** -0.0724 ± 0.00155 kcal/mol

**Q.** And the excess molar enthalpy ([2]; x2 = 0.8063)?
**A.** -0.0606 ± 0.00134 kcal/mol

**Q.** And the excess molar enthalpy ([2]; x2 = 0.8473)?
**A.** -0.0507 ± 0.00117 kcal/mol

**Q.** What about the excess molar enthalpy ([2]; x2 = 0.8928) of the same compound?
**A.** -0.042 ± 0.00103 kcal/mol

**Q.** What about the excess molar enthalpy ([2]; x2 = 0.9433) of the same compound?
**A.** -0.0258 ± 0.000765 kcal/mol

**Q.** For `OCCc1ccccc1` [2-phenylethanol] + CC(O)CO, which excess molar enthalpy ([2]; x2 = 0.0637) is on record?
**A.** 0.0251 ± 0.000765 kcal/mol

**Q.** And the excess molar enthalpy ([2]; x2 = 0.1198)?
**A.** 0.0403 ± 0.001 kcal/mol

**Q.** What about the excess molar enthalpy ([2]; x2 = 0.1695) of the same compound?
**A.** 0.0483 ± 0.00112 kcal/mol

**Q.** And the excess molar enthalpy ([2]; x2 = 0.2139)?
**A.** 0.0548 ± 0.00124 kcal/mol

**Q.** And the excess molar enthalpy ([2]; x2 = 0.2858)?
**A.** 0.0599 ± 0.00134 kcal/mol

**Q.** And the excess molar enthalpy ([2]; x2 = 0.3525)?
**A.** 0.0608 ± 0.00134 kcal/mol

**Q.** And the excess molar enthalpy ([2]; x2 = 0.4495)?
**A.** 0.0582 ± 0.00129 kcal/mol

**Q.** What about the excess molar enthalpy ([2]; x2 = 0.5212) of the same compound?
**A.** 0.0576 ± 0.00129 kcal/mol

**Q.** And the excess molar enthalpy ([2]; x2 = 0.6201)?
**A.** 0.0539 ± 0.00122 kcal/mol

**Q.** What about the excess molar enthalpy ([2]; x2 = 0.7101) of the same compound?
**A.** 0.0509 ± 0.00117 kcal/mol

**Q.** What about the excess molar enthalpy ([2]; x2 = 0.7656) of the same compound?
**A.** 0.0473 ± 0.00112 kcal/mol

**Q.** What about the excess molar enthalpy ([2]; x2 = 0.8305) of the same compound?
**A.** 0.0397 ± 0.00098 kcal/mol

**Q.** What about the excess molar enthalpy ([2]; x2 = 0.8672) of the same compound?
**A.** 0.0339 ± 0.000908 kcal/mol

**Q.** And the excess molar enthalpy ([2]; x2 = 0.9074)?
**A.** 0.0266 ± 0.000789 kcal/mol

**Q.** What about the excess molar enthalpy ([2]; x2 = 0.9289) of the same compound?
**A.** 0.0212 ± 0.000693 kcal/mol

**Q.** What about the excess molar enthalpy ([2]; x2 = 0.9494) of the same compound?
**A.** 0.0158 ± 0.000621 kcal/mol

**Q.** And the excess molar enthalpy ([2]; x2 = 0.9751)?
**A.** 0.00853 ± 0.000502 kcal/mol

**Q.** With `OCCOCCOCCO` [triethylene glycol] as the compound, how does the mass density ([1]; 298.15 K) read?
**A.** 1119.78 ± 0.59 kg/m3

**Q.** And the mass density ([1]; 308.15 K)?
**A.** 1112.61 ± 0.58 kg/m3

**Q.** Which results are given for `OCCc1ccccc1` [2-phenylethanol] + OCCO?
**A.** excess molar enthalpy ([2]; x2 = 0.0823): 0.0254 ± 0.000765 kcal/mol; excess molar enthalpy ([2]; x2 = 0.1521): 0.0386 ± 0.000956 kcal/mol; excess molar enthalpy ([2]; x2 = 0.212): 0.0456 ± 0.00108 kcal/mol; excess molar enthalpy ([2]; x2 = 0.264): 0.0486 ± 0.00112 kcal/mol; excess molar enthalpy ([2]; x2 = 0.3498): 0.0495 ± 0.00115 kcal/mol; excess molar enthalpy ([2]; x2 = 0.4177): 0.0478 ± 0.00112 kcal/mol; excess molar enthalpy ([2]; x2 = 0.5183): 0.0467 ± 0.0011 kcal/mol; excess molar enthalpy ([2]; x2 = 0.5892): 0.0446 ± 0.00108 kcal/mol; excess molar enthalpy ([2]; x2 = 0.6827): 0.0408 ± 0.001 kcal/mol; excess molar enthalpy ([2]; x2 = 0.7635): 0.036 ± 0.000932 kcal/mol; excess molar enthalpy ([2]; x2 = 0.8115): 0.0313 ± 0.00086 kcal/mol; excess molar enthalpy ([2]; x2 = 0.8659): 0.0257 ± 0.000765 kcal/mol; excess molar enthalpy ([2]; x2 = 0.8959): 0.0214 ± 0.000693 kcal/mol; excess molar enthalpy ([2]; x2 = 0.9281): 0.0168 ± 0.000621 kcal/mol; excess molar enthalpy ([2]; x2 = 0.9451): 0.0134 ± 0.000574 kcal/mol; excess molar enthalpy ([2]; x2 = 0.9627): 0.00989 ± 0.000526 kcal/mol; excess molar enthalpy ([2]; x2 = 0.981): 0.00507 ± 0.000454 kcal/mol

**Q.** With `CC(O)CO` (stereo unspecified) [1,2-propanediol] as the compound, how does the mass density ([1]; 308.15 K) read?
**A.** 1026.15 ± 0.53 kg/m3

**Q.** With `OCCc1ccccc1` [2-phenylethanol] + OCCOCCOCCO as the compound, how does the excess molar enthalpy ([2]; x2 = 0.036) read?
**A.** -0.0244 ± 0.000741 kcal/mol

**Q.** And the excess molar enthalpy ([2]; x2 = 0.0695)?
**A.** -0.0421 ± 0.00103 kcal/mol

**Q.** And the excess molar enthalpy ([2]; x2 = 0.1008)?
**A.** -0.0542 ± 0.00122 kcal/mol

**Q.** What about the excess molar enthalpy ([2]; x2 = 0.13) of the same compound?
**A.** -0.0622 ± 0.00136 kcal/mol

**Q.** What about the excess molar enthalpy ([2]; x2 = 0.1832) of the same compound?
**A.** -0.0713 ± 0.00153 kcal/mol

**Q.** And the excess molar enthalpy ([2]; x2 = 0.2296)?
**A.** -0.0755 ± 0.0016 kcal/mol

**Q.** And the excess molar enthalpy ([2]; x2 = 0.3096)?
**A.** -0.079 ± 0.00165 kcal/mol

**Q.** And the excess molar enthalpy ([2]; x2 = 0.3741)?
**A.** -0.0801 ± 0.00167 kcal/mol

**Q.** And the excess molar enthalpy ([2]; x2 = 0.4728)?
**A.** -0.0805 ± 0.00167 kcal/mol

**Q.** And the excess molar enthalpy ([2]; x2 = 0.5737)?
**A.** -0.0778 ± 0.00163 kcal/mol

**Q.** What about the excess molar enthalpy ([2]; x2 = 0.6421) of the same compound?
**A.** -0.0755 ± 0.0016 kcal/mol

**Q.** And the excess molar enthalpy ([2]; x2 = 0.7346)?
**A.** -0.0676 ± 0.00146 kcal/mol

**Q.** And the excess molar enthalpy ([2]; x2 = 0.782)?
**A.** -0.06 ± 0.00134 kcal/mol

**Q.** And the excess molar enthalpy ([2]; x2 = 0.8433)?
**A.** -0.0473 ± 0.00112 kcal/mol

**Q.** What about the excess molar enthalpy ([2]; x2 = 0.8777) of the same compound?
**A.** -0.0396 ± 0.00098 kcal/mol

**Q.** What about the excess molar enthalpy ([2]; x2 = 0.915) of the same compound?
**A.** -0.0282 ± 0.000813 kcal/mol

**Q.** And the excess molar enthalpy ([2]; x2 = 0.9556)?
**A.** -0.0151 ± 0.000598 kcal/mol

**Q.** For `OCCc1ccccc1` [2-phenylethanol] + OCCOCCO, which excess molar enthalpy ([2]; x2 = 0.05) is on record?
**A.** -0.0263 ± 0.000789 kcal/mol

**Q.** And the excess molar enthalpy ([2]; x2 = 0.0952)?
**A.** -0.0434 ± 0.00105 kcal/mol

**Q.** What about the excess molar enthalpy ([2]; x2 = 0.1363) of the same compound?
**A.** -0.0541 ± 0.00122 kcal/mol

**Q.** What about the excess molar enthalpy ([2]; x2 = 0.1738) of the same compound?
**A.** -0.0613 ± 0.00136 kcal/mol

**Q.** And the excess molar enthalpy ([2]; x2 = 0.2399)?
**A.** -0.0675 ± 0.00146 kcal/mol

**Q.** And the excess molar enthalpy ([2]; x2 = 0.2961)?
**A.** -0.0721 ± 0.00153 kcal/mol

**Q.** What about the excess molar enthalpy ([2]; x2 = 0.3869) of the same compound?
**A.** -0.0735 ± 0.00155 kcal/mol

**Q.** What about the excess molar enthalpy ([2]; x2 = 0.4569) of the same compound?
**A.** -0.0727 ± 0.00155 kcal/mol

**Q.** What about the excess molar enthalpy ([2]; x2 = 0.5579) of the same compound?
**A.** -0.0712 ± 0.00153 kcal/mol

**Q.** What about the excess molar enthalpy ([2]; x2 = 0.6544) of the same compound?
**A.** -0.0684 ± 0.00148 kcal/mol

**Q.** What about the excess molar enthalpy ([2]; x2 = 0.7163) of the same compound?
**A.** -0.0652 ± 0.00141 kcal/mol

**Q.** And the excess molar enthalpy ([2]; x2 = 0.7911)?
**A.** -0.0577 ± 0.00129 kcal/mol

**Q.** And the excess molar enthalpy ([2]; x2 = 0.8347)?
**A.** -0.0503 ± 0.00117 kcal/mol

**Q.** And the excess molar enthalpy ([2]; x2 = 0.8834)?
**A.** -0.0401 ± 0.00098 kcal/mol

**Q.** What about the excess molar enthalpy ([2]; x2 = 0.9099) of the same compound?
**A.** -0.0355 ± 0.000932 kcal/mol

**Q.** And the excess molar enthalpy ([2]; x2 = 0.9381)?
**A.** -0.0248 ± 0.000765 kcal/mol

**Q.** And the excess molar enthalpy ([2]; x2 = 0.968)?
**A.** -0.0131 ± 0.000574 kcal/mol
